According to US9073943B2, “Antiviral compounds with a dibenzooxaheterocycle moiety” (Lupin Limited, priority 2012, dated 2015):

Experiments:
[1] = system: Huh7.5/Con1/SG-Neo(I)hRluc2aUb cell line persistently expressing a bicistronic genotype 1b replicon; assay: HCV replicon assay, genotype 1b (Renilla luciferase readout); assay type: cell-based; settings: Hepatitis C virus, genotype 1b replicon in Huh 7.5 cells, 72 h, read-out: Gt1b IC50
Source text: (§1) Anti-viral activity of the compounds of the invention was monitored using an HCV replicon assay. The Huh7.5/Con1/SG-Neo(I)hRluc2aUb cell line persistently expressing a bicistronic genotype 1b replicon in Huh 7.5 cells and the Huh7.5/J6/JFH1/EMCVIRES/hRlucNeo cell line expressing a bicistronic genotype 2a replicon in Huh 7.5 cells were obtained from Apath LLC. These cell lines were used to test inhibition of replicon levels by test compound using Renilla luciferase enzyme activity readout as a measure of viral replication efficiency.
(§2) Briefly, 7000-7500 cells were seeded in 96 well black clear bottom plates and allowed to adhere overnight. The next day each compound was added in triplicate to the cells at the desired concentration with a final DMSO concentration of 0.5%. Cells in media alone and cells incubated without drug with 0.5% DMSO served as controls. The plates were incubated for 72 h at 37° C. prior to running the luciferase assay. Enzyme activity was measured using Renilla-Glo Luciferase Assay kit from Promega as per the manufacturer's instructions. The following equation was used to generate the percent inhibition value for each test concentration.
(§3) The IC50 value was determined using GraphPad Prism and the following equation: Y=Bottom+(Top−Bottom)/(1+10^((LogIC50−X)*Hill slope))
(§4) IC50 values/% inhibitions of compounds were determined 2-3 times in the replicon assays.

[2] = system: Huh7.5/J6/JFH1/EMCVIRES/hRlucNeo cell line expressing a bicistronic genotype 2a replicon; assay: HCV replicon assay, genotype 2a (Renilla luciferase readout); assay type: cell-based; settings: Hepatitis C virus, genotype 2a replicon in Huh 7.5 cells, 72 h, read-out: Gt2a IC50
Source text: as §1, §2, §3, §4

For `COC(=O)N[C@H](C(=O)N1CCC[C@H]1c1ncc(-c2ccc3c(c2)OCCCOc2cc(-c4[nH]c([C@@H]5CCCN5C(=O)[C@@H](NC(=O)OC)C(C)C)nc4Cl)ccc2-3)[nH]1)C(C)C` [Compound 2, methyl ((S)-1-((S)-2-(5-(11-(2-((S)-1-((S)-2-(methoxycarbonyl)amino-3-methylbutanoyl)pyrrolidin-2-yl)-1H-imidazol-5-yl)-7,8-dihydro-6H-dibenzo[f,h][1,5]dioxonin-3-yl)-4-chloro-1H-imidazol-2-yl)pyrrolidin-1-yl)-3-methyl-1-oxobutan-2-yl)carbamate], the IC50 [1] was 0.051 nM and the IC50 [2] was 0.053 nM.

Work on `COC(=O)N[C@H](C(=O)N1CCC[C@H]1c1nc(Cl)c(-c2ccc3c(c2)OCCCOc2cc(-c4[nH]c([C@@H]5CCCN5C(=O)[C@@H](NC(=O)OC)C(C)C)nc4Cl)ccc2-3)[nH]1)C(C)C` [Compound 3, dimethyl ((2S,2′S)-((2S,2′S)-2,2′-(5,5′-(7,8-dihydro-6H-dibenzo[f,h][1,5]dioxonine-3,11-diyl)bis(4-chloro-1H-imidazole-5,2-diyl))bis(pyrrolidine-2,1-diyl))bis(3-methyl-1-oxobutane-2,1-diyl))dicarbamate] yielded an IC50 [1] of 0.018 nM and an IC50 [2] of 0.037 nM.

For `COC(=O)N[C@H](C(=O)N1CCC[C@H]1c1ncc(-c2ccc3c(c2)OCC(C)(C)COc2cc(-c4[nH]c([C@@H]5CCCN5C(=O)[C@@H](NC(=O)OC)C(C)C)nc4Cl)ccc2-3)[nH]1)C(C)C` [Compound 6, methyl ((S)-1-((S)-2-(5-(11-(2-((S)-1-((S)-2-(methoxycarbonyl)amino-3-methylbutanoyl)pyrrolidin-2-yl)-4-chloro-1H-imidazol-5-yl)-7,7-dimethyl-7,8-dihydro-6H-dibenzo[f,h][1,5]dioxonin-3-yl)-1H-imidazol-2-yl)pyrrolidin-1-yl)-3-methyl-1-oxobutan-2-yl)carbamate], the IC50 [1] was 0.021 nM and the IC50 [2] was 0.671 nM.

`COC(=O)N[C@H](C(=O)N1CCC[C@H]1c1nc(Cl)c(-c2ccc3c(c2)OCC(C)(C)COc2cc(-c4[nH]c([C@@H]5CCCN5C(=O)[C@@H](NC(=O)OC)C(C)C)nc4Cl)ccc2-3)[nH]1)C(C)C` [Compound 7, dimethyl ((2S,2′S)-((2S,2′S)-2,2′-(5,5′-(7,7-dimethyl-7,8-dihydro-6H-dibenzo[f,h][1,5]dioxonine-3,11-diyl)bis(4-chloro-1H-imidazole-5,2-diyl))bis(pyrrolidine-2,1-diyl))bis(3-methyl-1-oxobutane-2,1-diyl))dicarbamate] gave an IC50 [1] of 0.004 nM and an IC50 [2] of 0.249 nM.
